Measured values reported in US5466675A, “Immunological activity of rhamnolipids” (priority 1992, dated 1995).

What was measured:
[1] = test system: oxazolone-induced delayed type hypersensitivity; assay: immunostimulation (cellular): oxazolone-induced delayed type hypersensitivity; type: in vivo, mouse; settings: IP 100 × 5 mg/kg
Description: The test substance was administered i.p to groups of 5 mice, 1 hour before application (sensitization) of oxazolone (0.1 ml of 5% solution) to the pre-shaven abdominal surface. Seven days later, 25 μl of a 2% solution of oxazolone was applied (challenge) to the right ear, with vehicle being applied to the left ear. After 24 hours, each mouse was sacrificed and ear thickness measured with a Dyer Model micrometer gauge. Greater than 30 percent enhancement is considered immunostimulant activity.

[2] = test system: Candida albicans; assay: immunorestoration: immunosuppression with cyclophosphamide and infection with Candida albicans; type: in vivo, mouse (ICR, female); settings: for Survivor No.: n = 10
Excerpt: […] One day after the last immunosuppressant dose, the mice were challenged with a suspension of C. albicans sufficient to result in 90 to 100 percent mortality within 10 days in the vehicle treated control group. A greater than 30 percent survival for any drug treated group is considered significant, and possibly a result of immunorestorant activity.

[3] = test system: oxazolone-induced delayed type hypersensitivity; assay: immunosuppression (cellular): oxazolone-induced delayed type hypersensitivity; type: in vivo, mouse (ICR, female); settings: IP 30 × 5 mg/kg
Description: The shaved abdominal surface of groups of 5 mice were sensitized by application of 0.1 ml of 5% oxazolone. The test substance was administered i.p after 1 hour and then daily for 5 consecutive doses. After an additional 4 days, the animals were challenged by application of 25 ul of 5% oxazolone to the right ear. Twenty-four hours later, ear thickness was measured with a Dyer Model micrometer gauge.
A 50 percent or greater decrease in drug-treated versus control animals is considered significant immunosuppressant activity.

[4] = test system: sheep red blood cell (SRBC) hemagglutination; assay: immunosuppression (humoral): sheep red blood cell (SRBC) hemagglutination; type: in vivo, mouse (ICR, female); settings: IP 30 × 3 mg/kg
Description: (§1) Groups of 6 mice were sensitized by the IV injection of 0.2 ml of a 2% SRBC suspension. On the 9th day following sensitization, blood samples were withdrawn from the orbital sinus and equal parts of complement inactivated serum from the group of 6 mice were pooled to yield a single 0.25 ml sample. Serial 2-fold dilutions were then carried out 10 times in the presence of added complement. […] Serum titers of less than 16 or greater than 128 are considered significant and indicate possible immunosuppressant and immunostimulant activity, respectively.
(§2) For immunostimulant activity, test substance or vehicle was administered i.p. to groups of mice for 3 consecutive days, and sensitized to SRBCs 2 hours after the third (last) injection. For immunosuppressant activity, test substance or vehicle was administered i.p. to groups of mice for 3 consecutive days beginning 2 hours after sensitization to SRBCs.

[5] = test system: Candida albicans; assay: immunomodulation: infection with Candida albicans; type: in vivo, mouse (ICR, female); settings: IP 30 mg/kg
Description: The test compound or vehicle was administered i.p. to groups of 10 mice 1 hour before IV, challenge with suspension of C. albicans sufficient to result in 90 to 100% mortality within 10 days in the vehicle treated control group. A greater than 30 percent survival for any treated group is considered very significant, and possibly a result of immunomodulation, while an increase of 20% is considered a moderate immunomodulation activity.

[6] = test system: sheep red blood cell (SRBC) hemagglutination; assay: immunostimulation (humoral): sheep red blood cell (SRBC) hemagglutination; type: in vivo, mouse (ICR, female); settings: IP 30 × 3 mg/kg
Description: as §1, §2

[7] = test system: phospholipase A2; settings: Japanese patent No. 63 253 025; cited from earlier work
[8] = IP 100 × 3 mg/kg + cyclophosphamide
[9] = cyclophosphamide alone, PO 30 × 3 mg/kg

## CC(C)(N1CC1C#N)N1CC1C(N)=O (stereo not shown) [Azimexone, reference compound]
[1]
  Swelling Inc. %: 31%
[1]; X ± SEM
  Swelling (R -L): 22.8 +/- 0.9 × 0.01 mm
  ear thickness, Left Ear (No Oxa.): 21.4 +/- 0.5 × 0.01 mm
  ear thickness, Right Ear (24 hrs Oxa.): 44.2 +/- 0.7 × 0.01 mm
[2]; [8]
  Death, days post-inoculum 0-1: 2 #/10 Mice
  Death, days post-inoculum 2-3: 1 #/10 Mice
  Death, days post-inoculum 4-6: 1 #/10 Mice
  Death, days post-inoculum 7-9: 1 #/10 Mice
  Response Inc. %: 30%
  Survivor No.: 5

## O=P1(N(CCCl)CCCl)NCCCO1 (stereo not shown) [Cyclophosphamide, reference compound]
[2]; [9]
  Death, days post-inoculum 0-1: 3 #/10 Mice
  Death, days post-inoculum 2-3: 2 #/10 Mice
  Death, days post-inoculum 4-6: 2 #/10 Mice
  Death, days post-inoculum 7-9: 1 #/10 Mice
  Survivor No.: 2
[3]
  Swelling Inh. %: 59%
[3]; X +/- SEM
  Swelling (R -L): 10.6 +/- 1.8 × 0.01 mm
  ear thickness, Left Ear (No Oxa.): 19.0 +/- 0.4 × 0.01 mm
  ear thickness, Right Ear (24 hrs Oxa.): 29.6 +/- 2.2 × 0.01 mm
[4]
  SERUM TITER (Reciprocal Serum Dilution): 4

## c1ccc([C@H]2CN3CCSC3=N2)cc1 [Levamisole, reference compound]
[5]
  Death, days post-inoculum 0-1: 3 #/10 Mice
  Death, days post-inoculum 2-3: 3 #/10 Mice
  Death, days post-inoculum 4-6: 0 #/10 Mice
  Death, days post-inoculum 7-9: 0 #/10 Mice
  Response Inc. %: 20%
[5]; n = 10
  Survivor No.: 4
[6]
  SERUM TITER (Reciprocal Serum Dilution): 128

## rhamnopyranosyldecanoic acid
[7]
  phospholipase A2 inhibition: phospholipase A2 inhibition
